Where two headings read alike, the source gives them in different places.
Assays:
[1] = target: T1, wild-type ypFabV (Yersinia pestis, UniProt Q8Z9U1); type: biochemical
[2] = target: T1, wild-type ypFabV; type: biochemical; remark: listed apart in the source
[3] = target: Wt ypFabV (Yersinia pestis, UniProt Q8Z9U1); test: biochemical; type: binding
Chain of Wt ypFabV (Q8Z9U1 whole entry, looked up): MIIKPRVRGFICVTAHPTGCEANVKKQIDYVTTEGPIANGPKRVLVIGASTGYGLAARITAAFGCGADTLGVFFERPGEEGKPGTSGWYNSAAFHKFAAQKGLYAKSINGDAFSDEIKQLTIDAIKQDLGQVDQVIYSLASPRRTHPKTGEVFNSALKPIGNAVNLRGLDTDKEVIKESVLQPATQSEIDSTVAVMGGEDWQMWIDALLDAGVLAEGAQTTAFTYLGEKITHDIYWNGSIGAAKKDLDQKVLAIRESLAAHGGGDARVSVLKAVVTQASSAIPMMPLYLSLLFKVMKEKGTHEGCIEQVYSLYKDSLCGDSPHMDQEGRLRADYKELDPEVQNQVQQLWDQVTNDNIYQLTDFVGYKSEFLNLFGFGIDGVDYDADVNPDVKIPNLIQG

T1 sequence (Q8Z9U1 whole entry, looked up): as above

Row | SMILES | product inhibition pattern with respect to NADH, wild-type ypFabV [1] | product inhibition pattern with respect to ddCoA, wild-type ypFabV [1] | kcat, wild-type ypFabV [2] | Km ([2]; read-out: KM, wild-type ypFabV) | Km ([2]; read-out: KM (global fit)) | also measured
1 | CCCCCCCCCCCC(=O)SCCNC(=O)CCNC(=O)[C@H](O)C(C)(C)COP(=O)(O)OP(=O)(O)OC[C@H]1O[C@@H](n2cnc3c(N)ncnc32)[C@H](O)[C@@H]1OP(=O)(O)O [lauroyl-CoA, Lauroyl-CoA] | noncompetitive | noncompetitive |  |  |  | 
2 | CCCCC/C=C/C(=O)SCCNC(=O)CCNC(=O)[C@H](O)C(C)(C)COP(=O)(O)OP(=O)(O)OC[C@H]1O[C@@H](n2cnc3c(N)ncnc32)[C@H](O)[C@@H]1OP(=O)(O)O [trans-2-octenoyl-CoA] |  |  | 0.267 ± 0.017 s⁻¹ | 7 ± 1 µM |  | 
3 | CCCCCCC/C=C/C(=O)SCCNC(=O)CCNC(=O)[C@H](O)C(C)(C)COP(=O)(O)OP(=O)(O)OC[C@H]1O[C@@H](n2cnc3c(N)ncnc32)[C@H](O)[C@@H]1OP(=O)(O)O [trans-2-decenoyl-CoA] |  |  | 5.53 ± 0.333 s⁻¹ | 23 ± 3 µM |  | 
4 | NC(=O)c1ccc[n+]([C@@H]2O[C@H](COP(=O)([O-])OP(=O)(O)OC[C@H]3O[C@@H](n4cnc5c(N)ncnc54)[C@H](O)[C@@H]3O)[C@@H](O)[C@H]2O)c1 [NAD^+] | competitive | noncompetitive |  |  |  | 
5 | NC(=O)C1=CN([C@@H]2O[C@H](COP(=O)(O)OP(=O)(O)OC[C@H]3O[C@@H](n4cnc5c(N)ncnc54)[C@H](O)[C@@H]3O)[C@@H](O)[C@H]2O)C=CC1 [NADH] |  |  |  |  | 10 ± 1 µM | Ki ([2]; read-out: Ki, NADH): 22 ± 3 µM; Kd ([3]; read-out: Kd Wt ypFabV, pH 8): 13 ± 1 µM
6 | CCCCCCCCC/C=C/C(=O)SCCNC(=O)CCNC(=O)[C@H](O)C(C)(C)COP(=O)(O)OP(=O)(O)OC[C@H]1O[C@@H](n2cnc3c(N)ncnc32)[C@H](O)[C@@H]1OP(=O)(O)O [ddCoA, trans-2-dodecenoyl-CoA] |  |  | 91.13 ± 7.1 s⁻¹ | 14 ± 1 µM | 19 ± 1 µM | kcat (global fit) [2]: 97.67 ± 6.47 s⁻¹; Kd [3]: 13 ± 1 µM

Source: PMC4887296 (Biochemistry, 2016)
